Assays:
[1] = tested on: human liver cytochrome P450 1A1 (CYP1A1); conditions: cited from earlier work
[2] = target: LDHA (Homo sapiens, UniProt P00338); test: Intracellular LDH activity in lysates of MA-treated cancer cells; format: cell-based; design: One microgram of total protein from cell or tissue lysates was used for intracellular or in vivo LDH assays; endogenous in cells; host or cells: WiDr, DLD-1, RKO, HT29, MCF7, Huh-7, HepG2, Hep3B, HCC-95, NCI-H1793; conditions: for IC50: normoxic
Protocol: A purification of recombinant LDHA was performed as described previously. LDH activity was determined by measuring the decrease of absorbance at 340 nm due to the oxidation of NADH in 20 mM HEPES-K^+, 0.05% bovine serum albumin (BSA), 20 μM NADH, and 2 mM pyruvate (Sigma-Aldrich, St. Louis, MO, USA) at a pH of 7.2 using a spectrofluorometer (Spectramax M2, Molecular Devices, San Jose, CA, USA; excitation 340 nm; emission 460 nm), as described previously. Ten nanograms of recombinant LDHA protein were used in the in vitro LDH activity assay. One microgram of total protein from cell or tissue lysates was used for intracellular or in vivo LDH assays.

[3] = tested on: LDHA; test: LDHA expression, western blot; format: cell-based, human; conditions: normoxic and hypoxic conditions
Protocol: Total protein was extracted from each cell using 1% NP-40 lysis buffer (150 mM NaCl, 10 mM HEPES (pH 7.45), 1% NP-40, 5 mM Na pyrophosphate, 5 mM NaF, 2 mM Na3VO4) containing protease inhibitor cocktail tablets (Roche, Basel, Switzerland). Equal amounts (20 μg) of protein from each sample were fractionated using SDS-PAGE and the protein was then transferred onto nitrocellulose membranes (Hybond ECL; GE Healthcare, Chicago, IL, USA) using electrophoresis. The membranes were blocked for 1 h at room temperature using 5% non-fat dry milk and were then incubated with primary antibodies specific to the target protein at 4 °C overnight. The membranes were washed three times, and incubated with the respective secondary antibodies conjugated with horseradish peroxidase. The specific bands of targeted proteins were detected using ECL Plus (GE Healthcare, Chicago, IL, USA).

SMILES: C[C@H](Cc1ccc2c(c1)OCO2)[C@@H](C)Cc1ccc2c(c1)OCO2 [MA, bis(3,4-methylenedioxy)-8,8’-lignan]
- inhibitory effect on drug metabolism [1]: selective inhibitory effect
- IC50 ([2]; DLD-1 cells): 129 ± 24.8 µM
- IC50 ([2]; HCC-95 cells): 112 ± 10.1 µM
- increase of LDHA activity in hypoxic condition ([2]; HT29, machilin A 30 μM, hypoxia): significantly reduced
- IC50 ([2]; HT29 cells): 48.4 ± 4.33 µM
- IC50 ([2]; Hep3B cells): 48.3 ± 4.13 µM
- IC50 ([2]; HepG2 cells): 101 ± 40.5 µM
- IC50 ([2]; Huh7 cells): 85.1 ± 20.9 µM
- IC50 ([2]; MCF-7 cells): 61.2 ± 3.02 µM
- IC50 ([2]; NCI-H1793 cells): 64 ± 5.61 µM
- IC50 ([2]; RKO cells): 73.7 ± 20.7 µM
- IC50 ([2]; WiDr cells): 61.9 ± 8.02 µM
- expression of LDHA [3]: not affected
